Source: the supplement of paper PMC10307832

Columns and labels:
Assay in all cases: relative viability (nuclei count vs DMSO), 5 days (fraction); higher = more cells survive
[1] = compound: CC[C@H](C)N1C=C(C2=C(C=C(C=C21)C3=CN=C(C=C3)N4CCNCC4)C(=O)NCC5=C(C=C(NC5=O)C)C)C [GSK126] + Cc1nc(Nc2ncc(C(=O)Nc3c(C)cccc3Cl)s2)cc(N2CCN(CCO)CC2)n1 [Dasatinib] (partner 0.075 µM)
How it was run: (§1)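 Each reported value is a median over duplicate plates. It expresses relative viability: treated-well nuclei count divided by vehicle-well nuclei count. Lung cancer cell lines in 1536-well plates were dosed by pin tool a day after seeding, alone with one drug or with a fixed anchor-drug dose plus five library-drug doses (not always all listed) in √10 steps, and nuclei were counted after 5 days.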

[2] = compound: C1CC(C1)(C(=O)O)C(=O)O.[NH2-].[NH2-].[Pt+2] [Carboplatin] + Nc1ncn([C@H]2C[C@H](O)[C@@H](CO)O2)c(=O)n1 [Decitabine] (partner 2 µM)
How it was run: as §1

[3] = compound: NS(=O)(=O)OC[C@@H]1C[C@@H](n2ccc3c(N[C@H]4CCc5ccccc54)ncnc32)C[C@@H]1O [MLN4924] + CC(=O)Nc1cccc(-n2c(=O)n(C3CC3)c(=O)c3c(Nc4ccc(I)cc4F)n(C)c(=O)c(C)c32)c1 [Trametinib] (partner 0.02 µM)
How it was run: as §1

[4] = compound: NS(=O)(=O)OC[C@@H]1C[C@@H](n2ccc3c(N[C@H]4CCc5ccccc54)ncnc32)C[C@@H]1O [MLN4924] + CC(C)C[C@H](NC(=O)[C@H](Cc1ccccc1)NC(=O)c1cnccn1)B(O)O [Bortezomib] (partner 0.002 µM)
How it was run: as §1

Row | Cell Line | relative viability ([1]; first compound 0.08 µM) | relative viability ([1]; first compound 0.253 µM) | relative viability ([1]; first compound 0.8 µM) | relative viability ([1]; first compound 2.53 µM) | relative viability ([1]; first compound 8 µM) | relative viability ([2]; first compound 0.08 µM) | relative viability ([2]; first compound 0.253 µM) | relative viability ([2]; first compound 0.8 µM) | relative viability ([2]; first compound 2.53 µM) | relative viability ([2]; first compound 8 µM) | relative viability ([3]; first compound 0.04 µM) | relative viability ([3]; first compound 0.1265 µM) | relative viability ([3]; first compound 0.4 µM) | relative viability ([3]; first compound 1.265 µM) | relative viability ([3]; first compound 4 µM) | relative viability ([4]; first compound 0.04 µM) | relative viability ([4]; first compound 0.1265 µM) | relative viability ([4]; first compound 0.4 µM) | relative viability ([4]; first compound 1.265 µM) | relative viability ([4]; first compound 4 µM)
1 | NCI-H2023 | 0.641 | 0.566 | 0.584 | 0.627 | 0.661 | 0.238 | 0.224 | 0.185 | 0.141 | 0.129 | 0.549 | 0.495 | 0.328 | 0.0604 | 0.0809 | 0.927 | 0.796 | 0.113 | 0.0794 | 0.0811
2 | EBC-1 | – | – | – | – | – | – | – | – | – | – | – | – | – | – | – | 0.403 | 0.269 | 0.17 | 0.117 | 0.142
3 | COR-L23 | 0.594 | 0.488 | 0.488 | 0.392 | 0.415 | 0.402 | 0.514 | 0.412 | 0.361 | 0.21 | 0.633 | 0.683 | 0.416 | 0.162 | 0.122 | 0.936 | 0.915 | 0.587 | 0.186 | 0.105
4 | NCI-H1793 | 0.441 | 0.373 | 0.356 | 0.431 | 0.405 | 0.464 | 0.538 | 0.503 | 0.452 | 0.357 | 0.417 | 0.426 | 0.508 | 0.376 | 0.294 | – | – | – | – | –
5 | A549 | – | – | – | – | – | 0.259 | 0.338 | 0.279 | 0.231 | 0.18 | – | – | – | – | – | – | – | – | – | –
6 | CAL-12T | 0.582 | 0.515 | 0.531 | 0.512 | 0.45 | – | – | – | – | – | 0.373 | 0.371 | 0.269 | 0.279 | 0.158 | – | 0.971 | 0.659 | 0.369 | 0.22
7 | NCI-H1993 | 0.701 | 0.598 | 0.375 | 0.703 | 0.646 | 0.64 | 0.661 | 0.559 | 0.559 | 0.473 | 0.63 | 0.425 | 0.388 | 0.415 | 0.356 | 0.856 | 0.72 | 0.664 | 0.383 | 0.474
8 | ChaGo-K-1 | 0.653 | 0.552 | 0.629 | 0.572 | 0.547 | 0.563 | 0.527 | 0.464 | 0.413 | 0.388 | 0.763 | 0.411 | 0.392 | 0.186 | 0.174 | 0.535 | 0.53 | 0.436 | 0.337 | 0.278
9 | SW 900 | 0.695 | 0.494 | 0.622 | 0.508 | 0.548 | 0.431 | 0.361 | 0.42 | 0.395 | 0.377 | – | 0.764 | 0.449 | 0.291 | 0.218 | – | – | – | – | –
10 | NCI-H2342 | 0.358 | 0.288 | 0.312 | 0.314 | 0.315 | 0.675 | 0.729 | 0.661 | 0.721 | 0.594 | 0.834 | 0.757 | 0.759 | 0.727 | 0.54 | – | – | – | – | –
11 | NCI-H441 | 0.618 | 0.688 | 0.458 | 0.796 | 0.407 | 0.215 | 0.242 | 0.211 | 0.209 | 0.222 | 0.576 | 0.508 | 0.598 | 0.152 | 0.19 | 0.876 | 0.29 | 0.236 | 0.145 | 0.191
